Experimental data published in ChEMBL document CHEMBL1201862, “PubChem BioAssay data set” (2004).
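All cell lines were grown in 96-well plates and treated with compound for 48 hours. GI50: concentration for 50% inhibition of growth.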 Calls of active or inactive are those of the source. Rule as the data show it: active = GI50 up to about 1.1 µM and inactive = higher.

Columns and labels:
Test in all cases: NCI tumour cell line growth inhibition, 48 h
[1] = system: MCF7
[2] = system: NCI/ADR-RES
[3] = system: UO-31
[4] = system: MDA-MB-231
[5] = system: HL-60
[6] = system: SF-295
[7] = system: MDA-N
[8] = system: A549
[9] = system: NCI-H460
[10] = system: HT-29
[11] = system: SNB-19
[12] = system: OVCAR-3
[13] = system: HCC 2998
[14] = system: 786-0
[15] = system: RPMI-8226
[16] = system: SK-MEL-28
[17] = system: OVCAR-4
[18] = system: NCI-H522
[19] = system: K562
[20] = system: OVCAR-5

Measured: GI50

CCC(=O)Nc1cccc(/N=C/c2ccc(OC(=O)/C=C\c3ccccc3)cc2)c1
inactive: [1] 25.2 µM | [2] > 75 µM | [3] 51.2 µM | [4] 73.3 µM | [5] > 75 µM | [6] 41.3 µM | [7] 58.6 µM | [8] 54 µM | [9] 61.5 µM | [10] 36.3 µM | [11] > 75 µM | [12] 43.7 µM | [13] 32.3 µM | [14] 65.9 µM | [15] 43.8 µM | [16] 61.4 µM | [17] 45.4 µM | [18] 33.7 µM | [19] 39.3 µM | [20] > 75 µM

N=C(N)NS(=O)(=O)c1ccc(NC(=O)c2ccc3nc4ccccc4c(O)c3c2)cc1
inactive: [1] > 100 µM | [2] > 100 µM | [3] > 100 µM | [4] > 100 µM | [5] > 100 µM | [6] > 100 µM | [7] > 100 µM | [8] > 100 µM | [9] > 100 µM | [10] > 100 µM | [11] > 100 µM | [12] > 100 µM | [13] > 100 µM | [14] > 100 µM | [15] > 100 µM | [16] > 100 µM | [17] > 100 µM | [18] > 100 µM | [19] > 100 µM | [20] > 100 µM

Clc1cc2nc(C3CCCCO3)[nH]c2cc1Cl (stereo not given)
inactive: [1] 3.48 µM | [2] 12.1 µM | [3] 11.1 µM | [4] 34.3 µM | [5] 4.78 µM | [6] 38.6 µM | [7] 4.1 µM | [8] 15.1 µM | [9] 18.6 µM | [10] 3.5 µM | [11] 39.7 µM | [12] 5.09 µM | [13] 38 µM | [14] 34 µM | [15] 12.8 µM | [16] > 60.3 µM | [17] 34.4 µM | [18] 2.59 µM | [19] 6.47 µM | [20] > 63.1 µM

CC1(C)O[C@H]2OC3CCC(=O)CC3(O)[C@H]2O1 (stereo not given in full)
inactive: [1] > 100 µM | [2] > 100 µM | [3] > 100 µM | [4] > 100 µM | [5] > 100 µM | [6] > 100 µM | [7] > 100 µM | [8] > 100 µM | [9] > 100 µM | [10] > 100 µM | [11] > 100 µM | [12] > 100 µM | [13] > 100 µM | [14] > 100 µM | [15] > 100 µM | [16] > 100 µM | [17] > 100 µM | [18] > 100 µM | [19] > 100 µM | [20] > 100 µM

Clc1ccccc1-c1nc(-c2ccncc2)no1 [PIFEXOLE]
inactive: [1] 30 µM | [2] 30.9 µM | [3] 47.4 µM | [4] 94.4 µM | [5] 13.4 µM | [6] 36.5 µM | [7] 49.3 µM | [8] 69 µM | [9] 58.7 µM | [10] 66.1 µM | [11] 96.2 µM | [12] 44.9 µM | [13] 25.1 µM | [14] > 100 µM | [15] 44.2 µM | [16] > 100 µM | [17] 59.8 µM | [18] 25.8 µM | [19] 26.6 µM | [20] > 100 µM
